The values below come from patent publication US10316070B2, “Dual protected pro-coelenterazine substrates” (PROMEGA CORPORATION, priority 2016, dated 2019).

SMILES strings stand for the structures.

Assay [1] has as its system thermal stable β-glucosidase. Description: Glucosidase assay: light output of furimazine mono- or bis-glucoside pro-substrate with Nanoluc, with and without β-glucosidase. As to conditions: for Background RLU: without β-glucosidase, Nanoluc; for Signal to Background: β-glucosidase vs no β-glucosidase. Format: biochemical. Here is the method: To the solution of 50 μl of furimazine mono- or bis-glucoside compound (100 μM) in NanoGlo buffer and 50 μl of NanoGlo buffer containing 1 ng/mL Nanoluc was added 11 μl of thermal stable β-glucosidase (Sigma) in PBS with final concentration of 1 Unit/ml/μM, and the light output was measured over time. The background of pro-substrate was measured under same condition without β-glucosidase.
(§1) The synthesized coelenterazine analogues (compounds of formula (I)) were evaluated for their background and signal/background ratio.

The test system of assay [2] is alkaline phosphatase. As to the kind of experiment: Alkaline phosphatase assay: light output of furimazine mono- or bis-phosphate pro-substrate with Nanoluc, with and without alkaline phosphatase. Conditions: for Signal to Background: alkaline phosphatase vs none; for Background RLU: without alkaline phosphatase, Nanoluc. Format: biochemical. Here is the method: Alkaline phosphatase assays. To the solution of 50 μl furimazine mono- or bis-phosphate compound (50 μM) and 50 μL of NanoGlo buffer containing 1 ng/mL Nanoluc was added, then alkaline phosphatase (Sigma) in PBS with final concentration at 1 Unit/ml/μM was added, and the light output was measured over time. The background of pro-substrate was measured under same condition without adding alkaline phasphotase.
as §1

Assay [3] has as its target T1, Cathepsin C (Bos taurus, UniProt Q3ZCJ8).
T1 construct: Cathepsin C (Sigma C8511 from bovine spleen); purchased Sigma C8511; host or cells: bovine spleen (tissue-derived)
Description: Cathepsin C assay: light output of furimazine mono- or bis-Gly-Phe pro-substrate with Nanoluc, with and without Cathepsin C. The format is biochemical, bovine. As to conditions: for Signal to Background: Cathepsin C vs none; for Background RLU: without Cathepsin C, Nanoluc. Here is the method:
Cathepsin C assay. To the solution of 50 μl of furimazine mono- or bis-Gly-Phe compound (50 μM) in 1:1 NanoGlo and nanopure water containing DTT 5 mM and 50 µL of 1 ng/mL Nanoluc buffer in 1:1 NanoGlo and nanopure water containing 5 mM DTT was added, then 10 μL of Cathepsin C (Sigma C8511 from bovine spleen) at final concentration of 0.1 U/well was added. The light output was measured over time. The background of pro-substrate was measured under same condition without adding Cathepsin C.
as §1

T1 sequence (Q3ZCJ8 231-394 limits assumed): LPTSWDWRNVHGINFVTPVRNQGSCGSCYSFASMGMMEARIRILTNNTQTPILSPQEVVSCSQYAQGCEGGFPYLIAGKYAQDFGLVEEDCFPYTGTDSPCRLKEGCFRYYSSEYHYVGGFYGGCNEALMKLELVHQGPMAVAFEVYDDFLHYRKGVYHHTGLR
T1 sequence (Q3ZCJ8 25-134 limits assumed): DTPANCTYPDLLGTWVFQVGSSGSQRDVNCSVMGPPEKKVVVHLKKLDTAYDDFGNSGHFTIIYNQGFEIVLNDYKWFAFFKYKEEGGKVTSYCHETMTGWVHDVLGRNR
T1 sequence (Q3ZCJ8 395-463 limits assumed): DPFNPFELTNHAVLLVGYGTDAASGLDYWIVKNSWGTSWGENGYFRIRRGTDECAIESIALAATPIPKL

Regarding `OCC1OC(Oc2ccc(COc3c(Cc4ccco4)nc4c(Cc5ccccc5)nc(-c5ccccc5)cn34)cc2)C(O)C(O)C1O` [WZ-0246, β-D-glucose Benzyl Furimazine], the “Background RLU” value is on record as 10,028 RLU in assay [1] (Time 0 hr); 10,884 RLU in assay [1] (Time 0.1 hr); 12,298 RLU in assay [1] (Time 0.25 hr); 13,047 RLU in assay [1] (Time 0.5 hr); 18,529 RLU in assay [1] (Time 1 hr); 20,751 RLU in assay [1] (Time 1.5 hr). Besides, the “Background RLU” value in assay [1] (Time 2 hr) is 24,489 RLU; in assay [1] (Time 3 hr), 29,692 RLU; in assay [1] (Time 4 hr) it was 33,514 RLU; in assay [1] (Time 5 hr) it was 37,181 RLU; in assay [1] (Time 6 hr) it was 40,543 RLU; in assay [1] (Time 16 hr), 23,092 RLU. In addition, the “Signal to Background” value is recorded as 3,235 in assay [1] (Time 0 hr); 2,915 in assay [1] (Time 0.1 hr); 2,426 in assay [1] (Time 0.25 hr); 2,193 in assay [1] (Time 0.5 hr); 1,172 in assay [1] (Time 1 hr); 926 in assay [1] (Time 1.5 hr). In addition, the “Signal to Background” value in assay [1] (Time 2 hr) is given as 627; in assay [1] (Time 3 hr) it was 385; in assay [1] (Time 4 hr) it was 264; in assay [1] (Time 5 hr), 210; in assay [1] (Time 6 hr), 157; in assay [1] (Time 16 hr), 36.
`O=P(O)(O)Oc1ccc(COc2c(Cc3ccco3)nc3c(Cc4ccccc4)nc(-c4ccccc4)cn23)cc1` [WZ-0263, Furimazine Benzyl Phosphate]: the “Signal to Background” value in assay [2] (Time 5 min) amounted to 203; in assay [2] (Time 11 min), 232; in assay [2] (Time 21 min), 236; in assay [2] (Time 31 min), 245; in assay [2] (Time 42 min) it was 244; in assay [2] (Time 62 min), 230. Also, the entries for the “Signal to Background” value in assay [2] (Time 93 min) and in assay [2] (Time 123 min) were 200 and 170, respectively. Besides, the “Background RLU” value in assay [2] (Time 5 min) was 32,464 RLU; in assay [2] (Time 11 min), 36,745 RLU; in assay [2] (Time 21 min), 42,522 RLU; in assay [2] (Time 31 min) it was 48,399 RLU; in assay [2] (Time 42 min), 54,309 RLU; in assay [2] (Time 62 min) it was 65,661 RLU. Moreover, the “Background RLU” value in assay [2] (Time 93 min) is recorded as 80,929 RLU; in assay [2] (Time 123 min), 94,825 RLU.
Take `NCC(=O)NC(Cc1ccccc1)C(=O)Nc1ccc(COc2c(Cc3ccco3)nc3c(Cc4ccccc4)nc(-c4ccccc4)cn23)cc1` (stereo not drawn) [WZ-0294, Gly-Phe-Aminobenzyl Furimazine]: the “Signal to Background” value in assay [3] (Time 5 min) stood at 151; in assay [3] (Time 10 min), 163; in assay [3] (Time 20 min) it was 180; in assay [3] (Time 30 min), 197; in assay [3] (Time 40 min), 210; in assay [3] (Time 60 min) it was 232. The “Signal to Background” value in assay [3] (Time 90 min) was 255; in assay [3] (Time 120 min), 275; in assay [3] (Time 180 min) it was 273; in assay [3] (Time 240 min), 259; in assay [3] (Time 938 min), 142. The “Background RLU” value is given as 8,974 RLU in assay [3] (Time 5 min); 9,538 RLU in assay [3] (Time 10 min); 10,825 RLU in assay [3] (Time 20 min); 11,741 RLU in assay [3] (Time 30 min); 12,664 RLU in assay [3] (Time 40 min); 14,295 RLU in assay [3] (Time 60 min). For the same molecule, the “Background RLU” value is listed as 16,141 RLU in assay [3] (Time 90 min); 17,178 RLU in assay [3] (Time 120 min); 20,562 RLU in assay [3] (Time 180 min); 23,705 RLU in assay [3] (Time 240 min); 15,995 RLU in assay [3] (Time 938 min).
For `OCC1OC(Oc2ccc(COc3c(Cc4ccco4)nc4c(Cc5ccccc5)nc(-c5ccc(OC6OC(CO)C(O)C(O)C6O)cc5)cn34)cc2)C(O)C(O)C1O` [WZ-0262, bis-(β-D-glucose) Benzyl Furimazine], the “background signal (in words)” value in assay [1] (FIG. 1, Tables 1 and 2) is “close to instrument noise”. The “Background RLU” value is on record as 87 RLU in assay [1] (Time 0 hr); 39 RLU in assay [1] (Time 0.1 hr); 32 RLU in assay [1] (Time 0.25 hr); 21 RLU in assay [1] (Time 0.5 hr); 26 RLU in assay [1] (Time 1 hr); 26 RLU in assay [1] (Time 1.5 hr). The “Background RLU” value in assay [1] (Time 2 hr) is on record as 20 RLU; in assay [1] (Time 3 hr), 14 RLU; in assay [1] (Time 4 hr) it was 25 RLU; in assay [1] (Time 5 hr) it was 26 RLU; in assay [1] (Time 6 hr), 22 RLU; in assay [1] (Time 16 hr), 26 RLU. Also, the “Signal to Background” value was 340,753 in assay [1] (Time 0 hr); 134,646 in assay [1] (Time 0.1 hr); 73,734 in assay [1] (Time 0.25 hr); 58,191 in assay [1] (Time 0.5 hr); 21,501 in assay [1] (Time 1 hr); 12,822 in assay [1] (Time 1.5 hr). Moreover, the “Signal to Background” value is on record as 11,569 in assay [1] (Time 2 hr); 11,041 in assay [1] (Time 3 hr); 5,297 in assay [1] (Time 4 hr); 4,585 in assay [1] (Time 5 hr); 5,060 in assay [1] (Time 6 hr); 2708 in assay [1] (Time 16 hr). The “signal-to-background ratio, fold higher than the corresponding mono-protected analogue” value in assay [1] (at the initial time point) is recorded as ~100 fold. Moreover, the “signal-to-background ratio (in words)” value in assay [1] (compared to mono-protected analogues WZ-0261 and WZ-0246) is on record as “significantly higher”. Moreover, the “background, fold lower than the corresponding mono-protected analogue WZ-0246” value in assay [1] (vs WZ-0246) is ~200 fold.
In the case of `O=P(O)(O)Oc1ccc(COc2c(Cc3ccco3)nc3c(Cc4ccccc4)nc(-c4cccc(OP(=O)(O)O)c4)cn23)cc1` [WZ-0291, Furimazine Bis-Phosphate], the “Signal to Background” value is on record as 18,907 in assay [2] (Time 5 min); 18,699 in assay [2] (Time 11 min); 19,076 in assay [2] (Time 21 min); 18,846 in assay [2] (Time 31 min); 18,568 in assay [2] (Time 42 min); 18,861 in assay [2] (Time 62 min). The “Signal to Background” value is listed as 17,014 in assay [2] (Time 93 min) and 14,664 in assay [2] (Time 123 min). The “Background RLU” value in assay [2] (Time 5 min) was 713 RLU; in assay [2] (Time 11 min), 739 RLU; in assay [2] (Time 21 min), 723 RLU; in assay [2] (Time 31 min), 723 RLU; in assay [2] (Time 42 min) it was 722 RLU; in assay [2] (Time 62 min) it was 678 RLU. The “Background RLU” value in assay [2] (Time 93 min) is 680 RLU; in assay [2] (Time 123 min), 704 RLU. In addition, the “background (in words)” value in assay [2] (compared to mono-protected analogue WZ-0263) is reported as “low”. For the same molecule, the “signal-to-background ratio (in words)” value in assay [2] (compared to mono-protected analogues WZ-0263 and WZ-0265) was “significantly higher”.
As for `O=P(O)(O)Oc1c(Cc2ccco2)nc2c(Cc3ccccc3)nc(-c3ccccc3)cn12` [WZ-0265, Furimazine Phosphate], the “Signal to Background” value in assay [2] (Time 5 min) is 3; in assay [2] (Time 11 min), 3; in assay [2] (Time 21 min), 3; in assay [2] (Time 31 min), 3; in assay [2] (Time 42 min) it was 2; in assay [2] (Time 62 min), 2. Moreover, the “Signal to Background” value in assay [2] (Time 93 min) and in assay [2] (Time 123 min) was 2 each time. Also, the “Background RLU” value is 9,033,396 RLU in assay [2] (Time 5 min); 9,181,168 RLU in assay [2] (Time 11 min); 9,310,668 RLU in assay [2] (Time 21 min); 9,376,837 RLU in assay [2] (Time 31 min); 9,394,555 RLU in assay [2] (Time 42 min); 9,359,460 RLU in assay [2] (Time 62 min). Besides, the “Background RLU” value in assay [2] (Time 93 min) is on record as 9,089,377 RLU; in assay [2] (Time 123 min) it was 8,772,026 RLU.
